Measurements taken from the supplement of paper PMC10307832.

The cell lines below were run with CCOC(=O)CCNc1cc(N2CCc3ccccc3CC2)nc(-c2ccccn2)n1 [GSK-J4] + Nc1nc2[nH]cc(CCc3ccc(C(=O)N[C@@H](CCC(=O)O)C(=O)O)cc3)c2c(=O)[nH]1 [Pemetrexed] (partner 0.2 µM) (assay: relative viability (nuclei count vs DMSO), 5 days (fraction); higher = more cells survive). Conditions: first compound 0.5 µM.
In short: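 Lung cancer cell lines were seeded in 1536-well plates and dosed by pin tool the next day, with either a single drug or a fixed anchor-drug dose combined with five library-drug doses (not always all listed) spaced in √10 steps. Five days later, one step fixed the cells and stained their nuclei (final 0.05% Triton X-100, 1% formaldehyde, 1 ug/ml Hoechst), and nuclei were counted on 4× images. Relative viability is the nuclei count in treated wells divided by the count in vehicle wells, and each value is the median of duplicate plates.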

Question: NCI-H522 was tested. Which relative viability did it give?
Answer: Its relative viability is 0.983.

Question: Which relative viability does the source give for PC-14 here?
Answer: The relative viability was 0.128.

Question: How did the relative viability turn out when NCI-H1666 was run?
Answer: Its relative viability is 0.864.

Question: EKVX was tested. Which relative viability did it give?
Answer: Its relative viability is 0.351.

Question: With NCI-H1755 as the cell line, how does the relative viability read?
Answer: The relative viability was 0.4.

Question: For NCI-H2023, which relative viability is on record?
Answer: Its relative viability is 0.177.

Question: How did the relative viability turn out when HCC-78 was run?
Answer: Its relative viability is 0.916.

Question: With SK-LU-1 as the cell line, how does the relative viability read?
Answer: The relative viability was 0.931.

Question: Which relative viability does the source give for PC-3 [JPC-3] here?
Answer: The relative viability was 1.14.

Question: For LOU-NH91, which relative viability is on record?
Answer: Its relative viability is 0.39.

Question: Which relative viability does the source give for NCI-H647 here?
Answer: The relative viability was 0.175.

Question: How did the relative viability turn out when NCI-H23 was run?
Answer: The relative viability was 0.679.

Question: For EPLC-272H, which relative viability is on record?
Answer: Its relative viability is 0.36.

Question: NCI-H2126 was tested. Which relative viability did it give?
Answer: Its relative viability is 0.716.

Question: For HCC-44, which relative viability is on record?
Answer: Its relative viability is 0.601.

Question: With LK-2 as the cell line, how does the relative viability read?
Answer: Its relative viability is 0.281.

Question: How did the relative viability turn out when NCI-H2342 was run?
Answer: The relative viability was 0.737.

Question: For NCI-H1944, which relative viability is on record?
Answer: Its relative viability is 0.553.

Question: With NCI-H358 as the cell line, how does the relative viability read?
Answer: Its relative viability is 0.237.

Question: For SW 900, which relative viability is on record?
Answer: The relative viability was 0.478.

Question: For NCI-H1648, which relative viability is on record?
Answer: The relative viability was 0.618.

Question: With NCI-H1792 as the cell line, how does the relative viability read?
Answer: The relative viability was 0.799.

Question: NCI-H1395 was tested. Which relative viability did it give?
Answer: The relative viability was 0.894.

Question: Which relative viability does the source give for NCI-H1563 here?
Answer: Its relative viability is 0.738.

Question: How did the relative viability turn out when NCI-H1793 was run?
Answer: The relative viability was 1.01.

Question: For NCI-H2170, which relative viability is on record?
Answer: The relative viability was 0.237.

Question: Which relative viability does the source give for SK-MES-1 here?
Answer: Its relative viability is 0.836.

Same assay, conditions: first compound 1.581 µM

Question: For NCI-H522, which relative viability is on record?
Answer: The relative viability was 0.823.

Question: How did the relative viability turn out when PC-14 was run?
Answer: The relative viability was 0.143.

Question: Which relative viability does the source give for NCI-H1666 here?
Answer: Its relative viability is 0.665.

Question: With NCI-H1755 as the cell line, how does the relative viability read?
Answer: The relative viability was 0.349.

Question: For NCI-H2023, which relative viability is on record?
Answer: Its relative viability is 0.245.

Question: For HCC-78, which relative viability is on record?
Answer: The relative viability was 0.841.

Question: How did the relative viability turn out when SK-LU-1 was run?
Answer: The relative viability was 0.877.

Question: How did the relative viability turn out when PC-3 [JPC-3] was run?
Answer: Its relative viability is 0.848.

Question: Which relative viability does the source give for LOU-NH91 here?
Answer: The relative viability was 0.381.

Question: With NCI-H647 as the cell line, how does the relative viability read?
Answer: Its relative viability is 0.177.

Question: NCI-H23 was tested. Which relative viability did it give?
Answer: The relative viability was 0.525.

Question: Which relative viability does the source give for EPLC-272H here?
Answer: The relative viability was 0.294.

Question: With NCI-H2126 as the cell line, how does the relative viability read?
Answer: Its relative viability is 0.593.

Question: For HCC-44, which relative viability is on record?
Answer: The relative viability was 0.503.

Question: How did the relative viability turn out when LK-2 was run?
Answer: The relative viability was 0.239.

Question: For NCI-H2342, which relative viability is on record?
Answer: The relative viability was 0.79.

Question: NCI-H1944 was tested. Which relative viability did it give?
Answer: Its relative viability is 0.565.

Question: With SW 900 as the cell line, how does the relative viability read?
Answer: Its relative viability is 0.478.

Question: Which relative viability does the source give for NCI-H1792 here?
Answer: The relative viability was 0.595.

Question: With NCI-H1395 as the cell line, how does the relative viability read?
Answer: Its relative viability is 0.73.

Question: How did the relative viability turn out when NCI-H1563 was run?
Answer: Its relative viability is 1.26.

Question: NCI-H1793 was tested. Which relative viability did it give?
Answer: Its relative viability is 0.6.

Question: How did the relative viability turn out when NCI-H2170 was run?
Answer: Its relative viability is 0.292.

Question: SK-MES-1 was tested. Which relative viability did it give?
Answer: Its relative viability is 0.878.

Same assay, conditions: first compound 5 µM

Question: Which relative viability does the source give for PC-14 here?
Answer: The relative viability was 0.13.

Question: NCI-H1666 was tested. Which relative viability did it give?
Answer: The relative viability was 0.765.

Question: With EKVX as the cell line, how does the relative viability read?
Answer: The relative viability was 0.426.

Question: Which relative viability does the source give for NCI-H1755 here?
Answer: Its relative viability is 0.398.

Question: For NCI-H2023, which relative viability is on record?
Answer: Its relative viability is 0.238.

Question: With HCC-78 as the cell line, how does the relative viability read?
Answer: The relative viability was 0.929.

Question: Which relative viability does the source give for SK-LU-1 here?
Answer: The relative viability was 0.85.

Question: Which relative viability does the source give for PC-3 [JPC-3] here?
Answer: Its relative viability is 1.03.

Question: With LOU-NH91 as the cell line, how does the relative viability read?
Answer: The relative viability was 0.36.

Question: How did the relative viability turn out when NCI-H647 was run?
Answer: The relative viability was 0.168.

Question: NCI-H23 was tested. Which relative viability did it give?
Answer: The relative viability was 0.653.

Question: Which relative viability does the source give for EPLC-272H here?
Answer: The relative viability was 0.319.

Question: How did the relative viability turn out when NCI-H2126 was run?
Answer: Its relative viability is 0.733.
